The results in this text go back to article PMC6271231 (Molecules, 2014).

This test addresses NA of A/PR/8/34 (H1N1) (Influenza A virus, UniProt P03468). The test is described as follows: biochemical. The class given is biochemical, influenza A virus A/PR/8/34 (H1N1).

Entries after “also recorded” stand apart in the source; their conditions may differ. Some results are limits rather than exact numbers.

Sequence of NA of A/PR/8/34 (H1N1) (P03468 whole entry): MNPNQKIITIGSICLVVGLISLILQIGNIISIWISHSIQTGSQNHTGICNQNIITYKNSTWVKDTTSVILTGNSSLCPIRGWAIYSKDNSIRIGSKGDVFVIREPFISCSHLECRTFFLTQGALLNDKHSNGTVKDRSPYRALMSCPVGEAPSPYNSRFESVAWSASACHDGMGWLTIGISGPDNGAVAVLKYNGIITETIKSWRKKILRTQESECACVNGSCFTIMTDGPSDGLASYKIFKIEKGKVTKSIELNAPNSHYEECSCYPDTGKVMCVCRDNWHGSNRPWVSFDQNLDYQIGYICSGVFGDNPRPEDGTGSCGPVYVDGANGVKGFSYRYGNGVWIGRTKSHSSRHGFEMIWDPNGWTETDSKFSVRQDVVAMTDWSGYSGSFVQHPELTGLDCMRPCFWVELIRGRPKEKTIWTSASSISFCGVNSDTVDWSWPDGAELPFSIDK

`CC1(C)O[C@@H]2Cc3c(O)cc(OC(=O)c4cc(O)c(O)c(O)c4)cc3O[C@@H]2c2cc(O)c(O)c(O)c21` [Compound 1, (2R,3R)-7-O-galloylplumbocatechin A]: the 50% inhibitory concentration (IC50) is 59.7 µM; the “inhibitory effect against influenza H1N1 virus neuraminidase (in words)” value is “higher inhibitory activities on NA from influenza H1N1 virus than on those from influenza H3N2 and B viruses; also recorded: moderate inhibitory effects; also recorded: best results”.
`O=C(Oc1cc(O)c2c(c1)O[C@H](c1cc(O)c(O)c(O)c1)CC2)c1cc(O)c(O)c(O)c1` [Compound 2, (−)-5,3',4',5'-tetrahydroxyflavan-7-gallate]: the half-inhibitory concentration (IC50) was 83.4 µM; the “inhibitory effect against influenza H1N1 virus neuraminidase (in words)” value is “higher inhibitory activities on NA from influenza H1N1 virus than on those from influenza H3N2 and B viruses; also recorded: moderate inhibitory effects”.
For `O=C(Oc1cc(O)c2c(c1)OC(c1cc(O)c(O)c(O)c1)C(O)C2)c1cc(O)c(O)c(O)c1` (single isomer, unassigned; (+)) [Compound 3, (+)-3,5,3',4',5'-penta-hydroxyflavan-7-gallate], the 50% inhibitory concentration (IC50) was > 87.3 µM.
The same measure, in the same setting: in the case of `O=C(Oc1cc(O)c2c(c1)O[C@H](c1cc(O)c(OC(=O)c3cc(O)c(O)c(O)c3)c(O)c1)CC2)c1cc(O)c(O)c(O)c1` [Compound 4, (−)-7,4'-di-O-galloyltricetiflavan] it was > 67.3 µM.
